Where two headings read alike, the source gives them in different places.
Columns and labels:
[1] = system: porcine respiratory coronavirus (PRCV); experiment: Antiviral assay with NO donor in swine testicular (ST) cells; format: cell-based; conditions: NO donor SNAP
Experimental: We examined NO levels by Greiss assay in bronchoalveolar lavage (BAL) of pigs infected with either porcine respiratory coronavirus (PRCV). The antiviral effects of NO on this virus was tested in an in vitro system using a NO donor, S-nitroso-N-acetyl penicillamine (SNAP). We detected a large increase in NO levels in BAL fluids of PRCV-infected pigs. Pulmonary epithelial cell necrosis induced by PRCV coincided with increased NO. […] NO plays a role in innate immunity to respiratory CoV infections by inhibiting viral replication.

SARS CoV = format: cell-based
[2] = system: Patients with a severe case of CIVID-19 infection; format: in vivo, human; conditions: 5 patients treated with just the gas
[3] = 1 atm, cited from earlier work
tumors = experiment: Pre-inhalation of the formula before inhaled 3-bromopyruvate; format: in vivo, rats
Experimental: The problem with 3-bromopyruvate was its toxicity to normal lung cells. The formula needed to protect noncancerous cells from 3-bromopyruvate and to enhance its effect on tumors, was the addition of inhaled 20 mM solution of sodium pyruvate, calcium, phosphate, magnesium formula inhaled 1-2 hours prior to the inhalation of the 10 mg of 3-bromopyruvate. The investigators were given the sodium pyruvate with calcium, phosphate and magnesium formula and instructed to have the rats inhale the formula 1-2 hours prior the inhalation of the cancer drug. This approach reduced tumor sizes by 90% compared the 60% reduction with 3bromopyruvate by itself. The addition of dichloroacetate with 3-bromopyruvate to the sodium pyruvate with calcium, phosphate and magnesium formula was the best formula decreasing tumor loads by 95%, especially with the addition of magnesium bicarbonate that increased the PH to 7.9 to neutralize the lactic acid produced in tumors that enhance tumorigenesis.

[4] = system: human lung cancer cell line; conditions: cited from earlier work
lung tumors = conditions: cited from earlier work
[5] = system: patients with lung diseases including COPD; experiment: Comparison of inhaled salts of pyruvate, 5 ml of 0.5 mM solution (Table I)
[6] = Mucolytic activity with inhaled acetylcysteine; format: in vivo, human; conditions: with or versus commercial inhaled acetylcysteine
[7] = system: patients with lung diseases including COPD; experiment: Comparison of inhaled salts of pyruvate, 5 ml of 5 mM solution (Table II)
[8] = system: patients with chronic Hypoxemia; experiment: Various drugs with or without pre-inhaled pyruvate formulas (Table VII); format: in vivo, human; conditions: in vivo
Experimental: With the hundreds of patients tested in our various clinical trials, data was gathered as to the type of medications the patients used and the frequency of their use over a six-month period. The patients were asked to rate their medications form 1-10 with 1 being the most irritating with the most side effects and 10 being the best with no irritation and no side effects. In these clinical trials, various drugs were evaluated for irritation, mucus production, and efficacy in humans. The drugs were all evaluated using their current formulations and concentrations against the same formulations with the addition of sodium pyruvate, with the calcium, phosphate and magnesium formula given just prior to the use of their medications. They were instructed to 20 inhale this formula just prior to the use of their medications and to evaluate the effect of their medications on the 1-10 scale.
Patients on the various inhaled medications whether inhaled or taken orally or by IV infusion, were enlisted in the evaluation of the inhaled sodium pyruvate calcium, phosphate and magnesium formula. The patients were tested for their SaO2 levels and those that had SaO2 levels below 92% were asked to enlist in the study. […] After the SaO2 levels were determined prior to and one hour after taking their medications, the patients returned the following day, SaO2 measurements were taken one hour prior to taking their medications. The patients were then handed the hypotonic inhalation formula of sodium pyruvate with calcium, phosphate magnesium formula and instructed to inhale it one hour before taking their medications, SaO2 measurements were then taken one hour after taking their medications.

Smokers = experiment: Inhaled nicotine in pyruvate formulas
[9] = aerosol, 10 mg/5 mL by inhalation, 8 weeks
[10] = 5 ml of 0.5 mM solution, inhaled

SMILES: [N]=O [nitric oxide]
- PRCV replication [1]: significantly inhibited PRCV replication
- replication cycle of SARS CoV (SARS CoV): specifically inhibits the replication cycle of SARS CoV
- lung surfactants and lung fibrosis [2]: did not increase lung surfactants or reduce lung fibrosis
- solubility in water ([3]; 20° C.): 4.6 ml/100 ml
- solubility in water ([3]; 60° C.): 2.37 ml/100 ml

SMILES: O=C(O)C(=O)CBr [3-bromopyruvate]
- reduced tumor sizes (tumors; 20 mM sodium pyruvate, calcium, phosphate, magnesium formula inhaled 1-2 hours prior to 10 mg of 3-bromopyruvate): 90%
- reduction of tumor sizes (tumors; by itself): 60%
- apoptosis [4]: induced apoptosis through caspase-3, and PARP
- decreased tumor load (lung tumors; [9]): 60%
- decreased tumor multiplicity (lung tumors; [9]): 40%
- liver toxicity (lung tumors; aerosolized): did not accompany any liver toxicity

SMILES: CC(=O)C(=O)N[C@@H](CS)C(=O)O [Pyruvyl-cysteine]
- Increased in FEV-1% lung function ([5]; 5 ml of 0.5 mM solution in physiological saline, inhaled): 11%
- Percentage Increase in SaO2 over baseline [5, 10]: 0%
- Percentage decrease or increase of Nitric Oxide over baseline [5, 10]: 0%
- Relief of congestion, coughing and lung tightness [5, 10]: 5
- Overall Rating 1-10 ([5]; 5 ml of 0.5 mM solution, 1 most negative, 10 best): 8
- mucolytic activity [6]: as effective as acetylcysteine
- Increased in FEV-1% ([7]; 5 ml of 5 mM solution in saline, inhaled): 5%
- Percentage Increase in SaO2 over baseline ([7]; 5 ml of 5 mM solution, inhaled): 0%
- Percentage increase of Nitric Oxide over baseline ([7]; 5 ml of 5 mM solution, inhaled): 1%
- Relief of congestion, coughing and lung tightness ([7]; 5 ml of 5 mM solution, inhaled): 8
- Overall Rating 1-10 ([7]; 5 ml of 5 mM solution, 1 most negative, 10 best): 8

SMILES: CN1CCCC1c1cccnc1 (stereo not drawn) [Nicotine]
- SaO2 Measurements taken after medication and compared to baseline [8]: −3
- SaO2 Measurements taken after taking the medication and compared to baseline [8]: +2
- SaO2 measurements taken after taking medication and compared to baseline [8]: +4
- ability of each patient to determine the effect of nicotine delayed (Smokers; Nicotine delivered only with sodium pyruvate in saline solution): 26%
- tolerability (Smokers; nicotine in modified formula sodium pyruvate and calcium, phosphate and magnesium, nasal or lungs): well tolerated
